Consider seven compounds from patent publication US20070219186A1, “Pyrazolo[1,5-A]pyrimidine derivatives and methods of use thereof” (priority 2006, published 2007).

One data set deals with T1, human B-Raf (Homo sapiens, UniProt P15056).
T1 construct: Flag; GST; made in house; host or cells: Sf9 insect cells (B-Raf); E. coli (MEK1-GST)
The data set can be described thus: B-Raf Kinase to MEK1 ELISA. It counts as biochemical. The note with it: for IC50: median, cpd concentrations from 10 μM to 30 nM in half log dilutions, read-out: Median IC50; for inhibition at 10 µM: read-out: % Inhib./10 uM; for % Inhib./10 uM: single point assay. Summed up: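 Flag/GST-tagged human B-Raf (Sf9, ~20 ng/point) phosphorylates non-active GST-MEK1 (50 nM final) with ATP and MgCl2 in MOPS pH 7.2 buffer, 60 min at RT. Product is captured on anti-GST plates; MEK1 pSer217/221 is read by phospho-antibody plus europium conjugate (DELFIA).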
In general terms: ELISA stands for enzyme-linked immunosorbent assay.

T1 sequence (P15056 whole entry): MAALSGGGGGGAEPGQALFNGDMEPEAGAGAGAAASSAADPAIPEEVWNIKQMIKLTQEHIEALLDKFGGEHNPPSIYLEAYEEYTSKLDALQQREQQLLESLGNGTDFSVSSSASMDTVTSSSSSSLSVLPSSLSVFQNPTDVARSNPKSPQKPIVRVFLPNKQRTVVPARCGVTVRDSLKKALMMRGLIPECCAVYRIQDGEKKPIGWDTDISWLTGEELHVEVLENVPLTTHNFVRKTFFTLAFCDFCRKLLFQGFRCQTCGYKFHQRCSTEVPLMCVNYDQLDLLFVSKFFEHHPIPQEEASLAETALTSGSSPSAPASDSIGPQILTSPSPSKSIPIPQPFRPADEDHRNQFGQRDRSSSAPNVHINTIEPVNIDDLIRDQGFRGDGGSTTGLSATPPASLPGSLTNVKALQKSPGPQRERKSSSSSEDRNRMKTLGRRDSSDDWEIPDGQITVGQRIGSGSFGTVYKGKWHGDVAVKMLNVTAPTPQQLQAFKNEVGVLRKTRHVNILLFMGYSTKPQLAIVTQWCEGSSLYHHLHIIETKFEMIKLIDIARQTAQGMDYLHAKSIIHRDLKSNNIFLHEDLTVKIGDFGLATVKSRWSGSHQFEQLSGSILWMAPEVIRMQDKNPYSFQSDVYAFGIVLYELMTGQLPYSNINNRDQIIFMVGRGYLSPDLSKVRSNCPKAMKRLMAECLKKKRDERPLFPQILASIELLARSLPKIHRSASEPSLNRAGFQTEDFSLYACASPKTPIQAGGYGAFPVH

`CN1CC=C(c2cnn3c(-c4cccc(NC(=O)c5cccc(C(F)(F)F)c5)c4)ccnc23)CC1` [Example 306, N-{3-[3-(1-methyl-1,2,3,6-tetrahydropyridin-4-yl)pyrazolo[1,5-a]pyrimidin-7-yl]phenyl}-3-(trifluoromethyl)benzamide]: the melting point was in the range of 163 to 165 °C. Moreover, on human B-Raf, the IC50 was 851 nM and the inhibition at 10 µM turned out to be 68%.
The corresponding values for `CN1CCC(c2cnn3c(-c4cccc(NC(=O)c5cccc(C(F)(F)F)c5)c4)ccnc23)CC1` [Example 309, N-{3-[3-(1-methylpiperidin-4-yl)pyrazolo[1,5-a]pyrimidin-7-yl]phenyl}-3-(trifluoromethyl)benzamide] are 183 to 185 °C, 1330 nM and 63%.
With `O=C(Nc1ccc(F)c(-c2ccnc3cc(-c4ccncc4)nn23)c1)c1cccc(C(F)(F)F)c1` [Example 317, N-[4-fluoro-3-(2-pyridin-4-ylpyrazolo[1,5-a]pyrimidin-7-yl)phenyl]-3-(trifluoromethyl)benzamide], on human B-Raf, the IC50 is 42.3 nM and the inhibition at 10 µM was determined as 100%.
The matching figures for `O=C(Nc1ccc(F)c(-c2ccnc3ccnn23)c1)c1cccc(C(F)(F)F)c1` [Example 318, N-(4-fluoro-3-pyrazolo[1,5-a]pyrimidin-7-ylphenyl)-3-(trifluoromethyl)benzamide]: 3550 nM and 59%.
As for “N-{3-[3-(4-methoxyphenyl)pyrazolo[1,5-a]pyrimidin-7-yl]phenyl}-3-(trifluoromethyl)benzamide [Example 159]”, on human B-Raf, the IC50 was greater than 10000 nM and the “% Inhib./10 uM” value was found to be 5%.
The corresponding values for “ethyl 7-{3-[(pyridin-3-ylcarbonyl)amino]phenyl}pyrazolo[1,5-a]pyrimidine-3-carboxylate [Example 204]” are greater than 10000 nM and 12%.
The corresponding values for “ethyl 7-{3-[({[(ethoxycarbonyl)phenyl]amino}carbonyl)amino]phenyl}pyrazolo[1,5-a]pyrimidine-3-carboxylate [Example 15]” are greater than 10000 nM and 0%.

One may read the IC50 as the concentration that gives 50% inhibition. One may read the melting point as the temperature, or range, at which the solid turns liquid.
